Cc1ccc2cc(C)ccc2c1
Conditions | solubility (mole fraction)
in cyclohexane, 293.18 K | 0.03
in cyclohexane, 298.86 K | 0.0398
in cyclohexane, 305.57 K | 0.0513
in cyclohexane, 312.3 K | 0.0714
in cyclohexane, 318.76 K | 0.096
in cyclohexane, 323.07 K | 0.115
in cyclohexane, 325.79 K | 0.134
in cyclohexane, 333.08 K | 0.187
in cyclohexane, 339.97 K | 0.253
in ethyl acetate, 287.56 K | 0.0424
in ethyl acetate, 292.27 K | 0.0494
in ethyl acetate, 298.27 K | 0.0585
in ethyl acetate, 305.69 K | 0.0775
in ethyl acetate, 311.52 K | 0.0957
in ethyl acetate, 318.89 K | 0.123
in ethyl acetate, 325.2 K | 0.158
in ethyl acetate, 332.01 K | 0.2
in ethyl acetate, 338.58 K | 0.256
in isooctane, 288.36 K | 0.0234
in isooctane, 293.19 K | 0.0294
in isooctane, 298.62 K | 0.0344
in isooctane, 306.77 K | 0.0487
in isooctane, 315.41 K | 0.0725
in isooctane, 322.03 K | 0.0905
in isooctane, 327.1 K | 0.113
in isooctane, 334.57 K | 0.149
in isooctane, 341.2 K | 0.197
in isopropanol, 286.65 K | 0.0054
in isopropanol, 294.55 K | 0.0072
in isopropanol, 301.45 K | 0.0098
in isopropanol, 309.65 K | 0.0136
in isopropanol, 315.75 K | 0.0174
in isopropanol, 323.22 K | 0.023
in isopropanol, 330.55 K | 0.0297
in isopropanol, 335.95 K | 0.0371
in isopropanol, 341.65 K | 0.0517
in n-heptane, 288.85 K | 0.0289
in n-heptane, 293.58 K | 0.0359
in n-heptane, 298.72 K | 0.0433
in n-heptane, 304.56 K | 0.0529
in n-heptane, 311.77 K | 0.0632
in n-heptane, 317.8 K | 0.0775
in n-heptane, 324.79 K | 0.0979
in n-heptane, 332.39 K | 0.132
in n-heptane, 339.42 K | 0.17
in n-propyl acetate, 286.65 K | 0.0485
in n-propyl acetate, 293.5 K | 0.0638
in n-propyl acetate, 300.85 K | 0.0815
in n-propyl acetate, 307.41 K | 0.103
in n-propyl acetate, 313.85 K | 0.127
in n-propyl acetate, 320.65 K | 0.159
in n-propyl acetate, 328.22 K | 0.206
in n-propyl acetate, 333.46 K | 0.245
in n-propyl acetate, 338.17 K | 0.289
